The text below walks through data of patent publication US11298330B2, “Magnesium compositions and methods of use” (Neurocentria, Inc., priority 2017, dated 2022).

Series [1] deals with diabetic patients. Particulars: nearly 1 g of magnesium daily for 1 month; cited from earlier work.
Series [2] deals with young (9-month old) and aged (25-month old) rats. Particulars: food containing 2% magnesium oxide for 8 days, cited from earlier work.
In series [3] the test system is cultured rat hippocampal neurons. As to the kind of experiment: Probability of transmitter release (Pr) by FM dye uptake. Type of series: cell-based. The conditions noted are these: extracellular magnesium concentration from 0.8 mM to 1.2 mM for 4 h. On the procedure: An example of the effect of calcium and magnesium on the regulation of Probability of transmitter release (Pr) is shown in FIG. 3. In an experiment, rat hippocampal neurons were cultured in vitro in varying concentrations of extracellular calcium or magnesium, thereby effectively varying concentrations of intracellular calcium or magnesium. A traceable dye was used as a model neurotransmitter to measure the change in Pr. […] Furthermore, at a relatively low intracellular calcium concentration, the inverse relationship between intracellular magnesium concentration and Pr was more apparent, as shown in FIG. 3B. At a low calcium concentration condition, increasing the extracellular magnesium concentration promoted more synapses with a higher intracellular magnesium concentrations and low Pr values. […]
The Probability of transmitter release (Pr) of cultured rat hippocampal neurons was measured by quantification of N-β-Triethylammoniumpropyl)-4-(4-(Dibutylamino) Styryl) Pyridinium Dibromide (FM) dye uptake following a string of 30 single 1 Hertz (Hz) action potentials (Pr1Ap). […] Intracellular magnesium concentration was quantified by the intensity of MgGreen (MgGrn), a fluorescent dye that was proportional to magnesium concentration (Zhou et al., 2015).

The subject of series [4] is diabetic patients. The conditions noted are these: 720 mg/day for three months; cited from earlier work.

For `[O]=[Mg]` [magnesium oxide], in the series with diabetic patients [1], the “increase of serum magnesium level” value is recorded as “about 10%” and the metabolic control result is “only minor improvement”. In series [2], the side-effect entry was “diarrhea and weight loss”. The cognitive function result in series [2] (gain transient) is “some sign of improvement”.
`[Mg+2]` [magnesium]: the “effect on calcium-Pr relationship” value in series [3] is listed as “shifted the calcium-Pr relationship to the right”. Also, in the series with diabetic patients [4], the “blood magnesium levels raised, on average” value was “about 10%” and the “metabolic control as assessed by HbAlc levels” value is listed as “no improvement”.
